Earlier results, collected in patent publication US20150056194A1, “MODIFIED GREEN TEA POLYPHENOLS AND METHODS THEREOF FOR TREATING LIVER DISEASE” (priority 2013, published 2015).

Experiments:
influenza = conditions: compared with EGCG
[1] = animals receiving tea preparations in cancer prevention studies

| Molecule | anti-influenza activity, times more effective than EGCG (influenza) [times] | blood levels [1] |
| --- | --- | --- |
| EGCG-palmitate | 24 |  |
| O=C(O[C@@H]1Cc2c(O)cc(O)cc2O[C@@H]1c1cc(O)c(O)c(O)c1)c1cc(O)c(O)c(O)c1 [EGCG, (−)-Epigallocatechin-3-gallate] |  | lower than 0.5 μuM |
